Measurements reported in PubChem BioAssay (NCI).
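Compound exposure: 48 hours, 5 concentrations, 96-well plates. The concentration for 50% growth inhibition is given as GI50. TGI marks complete inhibition of growth.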

Tests used:
Test in all cases: NCI anticancer screen, dose series, 48 h
[1] = system: M14 melanoma
[2] = system: HL-60(TB) leukemia
[3] = system: BT-549 breast
[4] = system: SNB-75 CNS
[5] = system: NCI/ADR-RES ovarian
[6] = system: CCRF-CEM leukemia
[7] = system: UACC-62 melanoma
[8] = system: HT29 colon
[9] = system: OVCAR-4 ovarian
[10] = system: NCI-H522 lung

Structure (SMILES): COc1ccc(Cc2coc3ccccc3c2=O)cc1OC
- TGI [1]: > 100 µM
- TGI [2]: > 100 µM
- TGI [3]: > 100 µM
- TGI [4]: > 100 µM
- TGI [5]: > 100 µM
- TGI [6]: > 100 µM
- TGI [7]: > 100 µM
- TGI [8]: > 100 µM
- TGI [9]: > 100 µM
- TGI [10]: > 100 µM

Structure (SMILES): Nc1ccc(C(=O)N/C(=C\c2cccc([N+](=O)[O-])c2)c2nc3[nH]c(=S)[nH]c(=O)c3[nH]2)cc1
- TGI [1]: > 100 µM
- TGI [2]: > 100 µM
- TGI [3]: > 100 µM
- TGI [4]: 32.1 µM
- TGI [5]: > 100 µM
- TGI [6]: > 100 µM
- TGI [7]: > 56.2 µM
- TGI [8]: > 100 µM
- TGI [9]: > 100 µM
- TGI [10]: > 100 µM

Structure (SMILES): COc1ccc2c(c1)[nH]c(=O)c1c3cccc(F)c3cn21
- GI50 [1]: 0.0463 µM
- TGI [1]: > 100 µM
- GI50 [2]: 0.0183 µM
- TGI [2]: 0.0515 µM
- GI50 [3]: 21.2 µM
- TGI [3]: > 100 µM
- GI50 [4]: 0.0262 µM
- TGI [4]: 5.44 µM
- GI50 [5]: 0.038 µM
- TGI [5]: 14.3 µM
- GI50 [6]: 0.0282 µM
- TGI [6]: 0.304 µM
- GI50 [7]: 0.0379 µM
- TGI [7]: > 100 µM
- GI50 [8]: 0.0306 µM
- GI50 [9]: 0.126 µM
- TGI [9]: 28.8 µM
- GI50 [10]: 0.0756 µM
- TGI [10]: > 35.5 µM

Structure (SMILES): Nc1ccc(C2=CC(c3ccc(Cl)cc3)N3C=CSC3=N2)cc1 (stereo not given)
- GI50 [1]: 2.86 µM
- TGI [1]: 7.43 µM
- GI50 [2]: 6.13 µM
- TGI [2]: 53.5 µM
- GI50 [3]: 2.64 µM
- TGI [3]: 7 µM
- GI50 [4]: 5.29 µM
- TGI [4]: 22.8 µM
- GI50 [5]: 7.89 µM
- TGI [5]: > 100 µM
- GI50 [7]: 4.4 µM
- TGI [7]: 18.1 µM
- GI50 [8]: 2.79 µM
- TGI [8]: 6.98 µM
- GI50 [9]: 13 µM
- TGI [9]: > 100 µM
- GI50 [10]: 3.51 µM
- TGI [10]: 11.3 µM

Structure (SMILES): CC1=C(SCCC(=O)OC(C[Se]C2=C(C)C(=O)c3ccccc3C2=O)C(=O)NCCCCCC(=O)OCc2ccccc2)C(=O)c2ccccc2C1=O (stereo not given)
- GI50 [1]: 2.01 µM
- TGI [1]: 4.22 µM
- GI50 [2]: 3.09 µM
- TGI [2]: 8.52 µM
- GI50 [3]: 3.81 µM
- TGI [3]: 12.9 µM
- GI50 [4]: 11.5 µM
- TGI [4]: 23.8 µM
- GI50 [5]: 4.59 µM
- TGI [5]: 18.3 µM
- GI50 [6]: 2.82 µM
- TGI [6]: > 100 µM
- GI50 [7]: 8.04 µM
- TGI [7]: 20.9 µM
- GI50 [8]: 3.56 µM
- TGI [8]: 13.3 µM
- GI50 [9]: 12.3 µM
- TGI [9]: 25.1 µM
- GI50 [10]: 3.96 µM
- TGI [10]: 15 µM

Structure (SMILES): Cc1cccc2nc3ccccc3c(Nc3ccc(NS(C)(=O)=O)cc3)c12
- GI50 [1]: 9.95 µM
- TGI [1]: 23 µM
- GI50 [2]: 2.05 µM
- TGI [2]: 5.53 µM
- GI50 [3]: 14.3 µM
- TGI [3]: 27.7 µM
- GI50 [4]: 13 µM
- TGI [4]: 52.2 µM
- GI50 [5]: 15.8 µM
- TGI [5]: 48.8 µM
- GI50 [6]: 3.26 µM
- TGI [6]: 12.2 µM
- GI50 [8]: 5.18 µM
- TGI [8]: 24.8 µM
- GI50 [9]: 13 µM
- TGI [9]: 49.5 µM
- GI50 [10]: 8.09 µM
- TGI [10]: 22 µM

Structure (SMILES): COc1ccc2c(c1OC)CO[C@@H]2[C@H]1c2c(cc3c(c2OC)OCO3)CCN1S(=O)(=O)c1cn(C)cn1
- GI50 [1]: 0.513 µM
- TGI [1]: > 100 µM
- GI50 [2]: 1.66 µM
- TGI [2]: 4.9 µM
- GI50 [3]: 2.87 µM
- TGI [3]: 84.8 µM
- GI50 [4]: 1.6 µM
- TGI [4]: > 100 µM
- GI50 [5]: 1.97 µM
- TGI [5]: 8.35 µM
- GI50 [6]: 0.944 µM
- TGI [6]: > 100 µM
- GI50 [7]: 0.803 µM
- TGI [7]: > 100 µM
- GI50 [8]: 0.614 µM
- TGI [8]: > 100 µM
- GI50 [9]: 6.65 µM
- TGI [9]: > 100 µM
- GI50 [10]: 0.427 µM
- TGI [10]: 8.32 µM
